# Measured values reported in PMC5876397, “An advanced human in vitro co-culture model for translocation studies across the placental barrier” (Scientific Reports, 2018).
# Where two headings read alike, the source gives them in different places.
# Assays:
# BeWo b30 monolayer [1] = tested on: BeWo b30 monolayer
# Experimental: (§2) Polycarbonate Transwell® inserts (pore size 3.0 µm, growth area 1.12 cm^2, apical volume 0.5 ml, basolateral volume 1.5 ml; Corning®, Sigma-Aldrich, Buchs, Switzerland) were pre-coated with 50 µg/ml human placental collagen IV (Sigma-Aldrich, Buchs, Switzerland) for 1 h at 37 °C/5% CO2 (200 µl on both sides). Then the membrane was washed twice with phosphate buffered saline (PBS, pH 7.4, Sigma-Aldrich, Steinheim, Germany). Translocation experiments were done either with BeWo or HPEC monocultures or with both cell lines co-cultivated on a membrane. For the BeWo monolayer 1.5 × 10^5 cells in 500 µl EM were added apically and 1.5 ml EM basolaterally. For the HPEC monolayer the cells were seeded on the basolateral side of the membrane (Fig. 5a–d). Therefore, the reversed insert was placed in a 6-well plate (TPP, Faust AG, Schaffhausen, Switzerland), which had been filled with 1 ml sterile PBS to ensure a humid surrounding. Small rubber spaces (1.5 mm thick) were placed in each corner of the plate in order to slightly lift the lid to prevent direct contact of the lid with the membrane. This enables the adhesion of the drop to the lid, thereby avoiding medium loss as well as cell aggregation in the center. 1 × 10^5 HPECs in 200 µl EM were added to the membrane and the lid was immediately placed on the plate. After 2 h of incubation (37 °C, 5% CO2), the insert was placed into a 12-well plate with fresh EM (0.5 ml apical and 1.5 ml basolateral). For the co-culture, the steps described above for the monocultures were done, starting with the HPEC layer. The inserts were cultivated for 3 d at 37 °C/5% CO2 in EM (medium change after 48 h) under static conditions.
# (§3) Translocation studies were performed with co-cultured membranes as well as separate monolayers (BeWo on the apical or HPEC on the basolateral side of the insert) cultivated for 3 d as described above. […] At each time point (0, 0.25, 2, 4, 6, 8, 24 h) samples (50 µl) were taken from the basolateral chamber and renewed with fresh medium. […] Only differences were the use of EM with phenol red and sample volumes of 200 µl (basolateral) at each time point (0, 0.25, 1, 2, 6 h). Analysis of these samples was done by high performance liquid chromatography (HPLC). These studies were conducted in static and shaken (horizontal shaking at 50 rpm) conditions to determine the potential influence of simple shaking on transfer rates.
# (§4) The mass transported (ΔQn) was calculated for each time point and corrected for the mass taken before:1 ΔQn=Cn∗Vw+∑j=1n−1Vs∗Cj with the concentration measured at time tn (Cn), the volume of the well (Vw, 1.5 ml) and the sample volume (Vs). The sum of the amount removed during previous sampling is added respectively (Σ). Results were then expressed as basolateral amount of the initial dose (ID) in %. […] The permeability factor was calculated with the following two equations:2 P=ΔQ/Δt/A∗C0 3 Pe=1/(1/Pc−1/Pm) where the permeability factor (P; cm s^−1) is first calculated as the quotient of the amount transported (ΔQ; mg) at a specific time point (Δt; sec) divided by the product of the membrane surface area (cm^2) and the initial concentration of the substance (C0; mg cm^−3). Pe describes the apparent permeability factor corrected for the influence of the membrane. Therefore, the permeability value across the membrane Pm was subtracted from the permeability across the cells (Pc; monolayer or co-culture).
# [2] = tested on: BeWo b30 / HPEC-A2 co-culture
# Experimental: as §2, §3, §4
# HPEC-A2 monolayer [3] = test: Sodium fluorescein (Na-F) exclusion assay, HPEC monoculture; assay type: in vitro ADME, human; conditions: after 3 d of cultivation, 5 µM Na-F, 3 h incubation
# Experimental: (§1) To determine barrier formation, exclusion of Na-F was determined daily for 4 d. 0.5 ml of 5 µM Na-F (Sigma-Aldrich, Buchs, Switzerland) was added to the apical chamber and 1.5 ml EM (without phenol red) to the basal chamber.
# BeWo b30 monolayer [4] = test: Sodium fluorescein (Na-F) exclusion assay, BeWo monoculture; assay type: in vitro ADME, human; conditions: day 3 of cultivation, 5 µM Na-F, 3 h incubation
# Experimental: as §1
# [5] = tested on: BeWo b30 / HPEC-A2 co-culture; test: Sodium fluorescein (Na-F) exclusion assay, co-culture; assay type: in vitro ADME, human; conditions: day 3 of cultivation, 5 µM Na-F, 3 h incubation
# Experimental: as §1
# BeWo cells = conditions: cited from earlier work
# HPEC-A2 monolayer [6] = tested on: HPEC-A2 monolayer
# Experimental: as §2, §3, §4
# in vitro [7] = conditions: human
# Experimental: as §2, §3, §4
# in vitro [8] = conditions: not told, Permeability factor P2h
# Experimental: as §2
# (§5) Translocation studies were performed with co-cultured membranes as well as separate monolayers (BeWo on the apical or HPEC on the basolateral side of the insert) cultivated for 3 d as described above. […] At each time point (0, 0.25, 2, 4, 6, 8, 24 h) samples (50 µl) were taken from the basolateral chamber and renewed with fresh medium. […]
# (§6) The mass transported (ΔQn) was calculated for each time point and corrected for the mass taken before:1 ΔQn=Cn∗Vw+∑j=1n−1Vs∗Cj with the concentration measured at time tn (Cn), the volume of the well (Vw, 1.5 ml) and the sample volume (Vs). […] Results were then expressed as basolateral amount of the initial dose (ID) in %. […] The permeability factor was calculated with the following two equations:2 P=ΔQ/Δt/A∗C0 3 Pe=1/(1/Pc−1/Pm) where the permeability factor (P; cm s^−1) is first calculated as the quotient of the amount transported (ΔQ; mg) at a specific time point (Δt; sec) divided by the product of the membrane surface area (cm^2) and the initial concentration of the substance (C0; mg cm^−3). […]
# BeWo monolayer = conditions: cited from earlier work
# [9] = not told, 2 h
# Experimental: as §2, §5, §6
# [10] = Translocation study across BeWo monolayer on collagen-coated 3 µm polycarbonate Transwell insert; conditions: human; for Papp at 2 h, 100 µM: BeWo monolayer
# Experimental: as §2, §3, §4
# BeWo b30 monolayer [11] = test: as above; conditions: BeWo layer, after 6 h, static, 100 µM
# Experimental: as §2, §3, §4
# HPEC-A2 monolayer [12] = test: Translocation study across HPEC monolayer on collagen-coated 3 µm polycarbonate Transwell insert; conditions: after 6 h, static, 100 µM
# Experimental: as §2, §3, §4
# [13] = as above; conditions: human
# Experimental: as §2, §3, §4
# [14] = Translocation across control (empty collagen-coated) insert membrane; conditions: not told, Permeability factor P2h
# Experimental: as §2, §5, §6
# [15] = Translocation study across BeWo/HPEC co-culture (placental barrier model); conditions: human
# Experimental: as §2, §3, §4
# [16] = tested on: BeWo b30 / HPEC-A2 co-culture; test: as above; conditions: after 6 h, static, 100 µM
# Experimental: as §2, §3, §4
# [17] = Apparent permeability factor Pe, 2h, shaken (50 rpm), median ± mad
# [18] = Permeability factor P2h, shaken, without subtraction of Pmembrane
# [19] = Permeability factor P2h, static, without subtraction of Pmembrane
# [20] = Apparent permeability factor Pe, 2h, static, median ± mad
smiles,measurement,setting,value
"O=C([O-])c1ccccc1-c1c2ccc(=O)cc-2oc2cc([O-])ccc12.[Na+].[Na+] [Na-F, sodium fluorescein]",Permeability factor P2h,BeWo b30 monolayer [1],2.5 ± 0.4 x 10-6 cm s-1
same,"Transport, basolateral amount of the initial dose (ID)",BeWo b30 monolayer [1],34.5%
same,"Apparent permeability factor Pe, 2h",[2],1.1 ± 1.1 × 10^−6 cm s^−1
same,Permeability factor P2h,[2],1.0 ± 1.0 x 10-6 cm s-1
same,"Transport, basolateral amount of the initial dose (ID)",[2],35.1%
same,"Na-F translocation, basolateral amount of ID",HPEC-A2 monolayer [3],14.0 % of ID
same,"Na-F translocation, basolateral amount of ID",BeWo b30 monolayer [4],0.5 % of ID
same,"Na-F translocation, basolateral amount of ID",[5],0.5 % of ID
same,Viability of BeWo cells,"BeWo cells; previous publications ref 47, 64",did not affect the viability
same,"Transport, basolateral amount of the initial dose (ID)",HPEC-A2 monolayer [6],77.0%
Cc1cc(=O)n(-c2ccccc2)n1C [antipyrine],"Apparent permeability factor Pe, 2h","BeWo b30 monolayer [1]; human, 2 h, 100 µM",106.4 ± 8.2 × 10^−6 cm s^−1
same,Permeability factor P2h,"BeWo b30 monolayer [1]; human, 2 h, 100 µM",26.5 ± 1.1
same,"Transport, basolateral amount of the initial dose (ID)","BeWo b30 monolayer [1]; human, 6 h, 100 µM",74.7%
same,"Transport, basolateral amount of the initial dose (ID)","[2]; human, 6 h, 100 µM",80.9%
same,"Papp at 1 h, 100 µM",in vitro [7]; Permeability P1h,36.2 ×10⁻⁶ cm/s
same,"Papp at 1 h, 100 µM","in vitro [7]; Permeability Pe, 1h",79.3 ×10⁻⁶ cm/s
same,Papp at 2 h,in vitro [8],50 ± 3.4 ×10⁻⁶ cm/s
same,"Permeability Pe,1h",BeWo monolayer,58 ×10⁻⁶ cm/s
same,Viability of BeWo cells,BeWo cells,did not affect the viability
same,Permeability factor P2h,[9],35.3 ± 0.7
same,"Apparent permeability factor Pe, 2h","HPEC-A2 monolayer [6]; human, 2 h, 100 µM",76.5 ± 7.0 × 10^−6 cm s^−1
same,Permeability factor P2h,"HPEC-A2 monolayer [6]; human, 2 h, 100 µM",24.1 ± 1.0
same,"Transport, basolateral amount of the initial dose (ID)","HPEC-A2 monolayer [6]; human, 6 h, 100 µM",71.4%
COc1ccc2c(c1)c(CC(=O)O)c(C)n2C(=O)c1ccc(Cl)cc1 [indomethacin],"Papp at 2 h, 100 µM",[10]; [17],37.2 ± 11.9 ×10⁻⁶ cm/s
same,"Papp at 2 h, 100 µM","[10]; Apparent permeability factor Pe, 2h, static, apical to basolateral, median ± mad",39.5 ± 8 ×10⁻⁶ cm/s
same,"Papp at 1 h, 100 µM","[10]; Permeability P1h, this study, static, compared with BeWo monolayer literature values",19.9 ×10⁻⁶ cm/s
same,"Papp at 2 h, 100 µM",[10]; [18],21.7 ± 0.3 ×10⁻⁶ cm/s
same,"Papp at 2 h, 100 µM",[10]; [19],19 ± 3.5 ×10⁻⁶ cm/s
same,"Transport, basolateral amount of the initial dose (ID)",BeWo b30 monolayer [11],45.9%
same,"Transport, basolateral amount of the initial dose (ID)",HPEC-A2 monolayer [12],42.9%
same,"Papp at 2 h, 100 µM",[13]; [17],22.7 ± 0.4 ×10⁻⁶ cm/s
same,"Papp at 2 h, 100 µM",[13]; [20],19 ± 0.1 ×10⁻⁶ cm/s
same,"Papp at 2 h, 100 µM",[13]; [18],14.6 ± 1.2 ×10⁻⁶ cm/s
same,"Papp at 2 h, 100 µM",[13]; [19],12.6 ± 0.6 ×10⁻⁶ cm/s
same,Permeability P1h,"BeWo monolayer; BeWo monoculture transfer model, static conditions, Li et al. ref 47",23.2 ×10⁻⁶ cm/s
same,Papp at 2 h,[14]; shaken,39.6 ± 6.5 ×10⁻⁶ cm/s
same,Papp at 2 h,"[14]; static, median ± mad",36.4 ± 1.1 ×10⁻⁶ cm/s
same,"Papp at 2 h, 100 µM",[15]; [17],30.7 ± 1.2 ×10⁻⁶ cm/s
same,"Papp at 2 h, 100 µM",[15]; [20],26.7 ± 0.2 ×10⁻⁶ cm/s
same,"Papp at 2 h, 100 µM",[15]; [18],17.3 ± 0.8 ×10⁻⁶ cm/s
same,"Papp at 2 h, 100 µM",[15]; [19],15.3 ± 1.1 ×10⁻⁶ cm/s
same,"Transport, basolateral amount of the initial dose (ID)",[16],41.5%
